In brackets after ≈: the same amount, converted by molar mass. Blank lines part the entries; values can stand above or below the molecule they belong to.
Key:
[1] = water solubility of the amine boranes; assay type: physicochemical
Description: Two Hundred milliliters of distilled dimethylsulfide (DMS) and 122.5 g (523.5 mmol) of CH3 O(C2 H4 O)3 C2 H4 N(CH3)2 were added to a one liter three necked flask equipped with a magnetic stirring bar, a thermometer and a 250 ml pressure equalizing dropping funnel. 41.4 grams (523.5 mmol) of dimethylsulfide borane (DMSB) was added to the funnel. The DMSB was added dropwise over the next hour while maintaining the reaction vessel temperature between 7°-15° C with ice water cooling. After the reaction was complete, the DMS solvent was removed under vacuum.
(1) 62.0 g (530 mmol) of CH3 CH2 OC2 H4 N(CH3)2 and 41.7 g (530 mmol) of DMSB were reacted in the same manner as example 1.
33.7 g (229.2 mmol) of CH3 OC2 H4 OC2 H4 N(CH3)2 and 18.1 g (230 mmol) of DMSB were reacted in the same manner as example (1). The resulting liquid amine borane has an approximate water solubility of 200 g/l of solution.
113.2 g (1099 mmol) of CH3 OC2 H4 N(CH3)2 and 87.3 g (1099 mmol) DMSB were reacted in the same manner as example 1. […] Inert solvents, such as hydrocarbon or ether solvents, can be used partially or wholly in place of the DMS. Temperature, pressure and reaction proportions are not critical, although it is generally most convenient to use stoichimetric proportions at atmospheric pressure and room temperature or below.

[2] = electroless gold plating: reduction of gold salt solution on palladium chloride activated nickel plate; settings: mixed with KAuCl4 solution, pH 12.5
Description: The amine boranes of this invention are useful as reducing agents in aqueous solutions. For example, solutions of gold salts are reduced by the water soluble amine boranes to plate gold on a catalytically active surface contacted with the solution, as is more fully described in the above referenced co pending application. To illustrate, the pH of one hundred ml of a 3.0 g/l solution of KAuCl4 was raised to 12.5 by the addition of NaOH. In a separate beaker, the pH of 100 ml of a 2.00g/l solution of CH3 OCH2 CH2 N(CH3)2 :BH3 was also raised to 12.5 by the addtion of NaOH. […] A palladium chloride activated substrate of nickel plate was immersed in the stirred bath for one hour at room temperature.

water solubility (in words) ([1]; in water): very soluble in water
Structure (SMILES): [BH3-][N+](C)(C)CCOCCOCCOCCOC [Example 1]

solubility in water ([1]; in water at 25° C): 17 mg/mL (≈ 130 mM)
Structure (SMILES): [BH3-][N+](C)(C)CCOCC [Example 2]

approximate water solubility ([1]; in water): ~200 g/l of solution
Structure (SMILES): [BH3-][N+](C)(C)CCOCCOC [Example 3]

limiting solubility in water ([1]; in water): 38 g/l of solution | appearance and stability of mixed plating solution [2]: clear and stable
Structure (SMILES): [BH3-][N+](C)(C)CCOC [Example 4]

From patent publication US4080381A, “Water soluble tertiary amine boranes” (Mine Safety Appliances Company, priority 1976, dated 1978)
